Measured values reported in patent US5874472A, “Aminoacid derivatives as no synthase inhibitors” (Glaxo Wellcome Inc., priority 1993, dated 1999).

How the values were obtained:
[1] = phenylalanine-loaded rat; Chemical Abstracts vol. 89, 191755v; cited from earlier work
[2] = target: T1, inducible human NOS (Homo sapiens, UniProt P35228); assay: Inhibition of inducible human NOS (citrulline formation), enzyme from cytokine-induced DLD-1 cells; type: biochemical; conditions: NOS from cytokine-induced DLD-1 cells; 1 μM L-[14C] arginine; pH 7.4; 10 μM FAD, no calmodulin/CaCl2
T1 construct: Purification of NOS cytokine-induced human colorectal adenocarcinoma DLD-1 cells; host or cells: DLD-1 cells induced with interferon-gamma, interleukin-6, tumor necrosis factor and interleukin-1beta; 2',5' ADP Sepharose purified
Protocol: (§1) NOS was assayed for the formation of citrulline following the procedure of Schmidt et al (PNAS 88 365-369, 1991) with these modifications: 20 mM Hepes, pH 7.4, 10 μg/ml calmodulin, 2.5 mM CaCl2 2.5 mM DTT, 125 μM NADPH 10 μM H4 Biopterin, 0.5 mg/ml BSA, and 1 μM L-[^14 C] arginine (New England Nuclear). Linearity of NOS-catalyzed rate was confirmed prior to kinetic studies that used single time point determination of rate.
Purification of NOS cytokine-induced human colorectal adenocarcinoma DLD-1 cells.
DLD-1 (ATCC No. CCL 221) were grown at 37° C., 5% CO2 in RPMI 1640 medium supplemented with L- glutamin, penicillin, streptomycin, and 10% heat-inactivated fetal bovine serum. Cells were grown to confluency and then the following cocktail of cytokines were added: 100 units/ml interferon-gamma, 200 units/ml interleukin-6, 10 ng/ml tumor necrosis factor, and 0.5 ng/ml interieukin-1β. At 10-24 hr post-induction, cells were harvested by scraping and washed with phosphate-buffered saline. Pelleted cells were stored at -70° C. Purification of the induced NOS was performed at 4° C. Crude extract was prepared by three cycles of freeze/thawing cells in TDGB (20 mM tris pH 7.5, 10% glycerol, 1 mM DTT, 2 μM tetrahydrobiopterin). Extract was applied directly onto a column of 2',5' ADP sepharse (Pharmacia). Resin was sequentially washed with TDGB, 0.5 M NaCl in TDGB, TDGB. NOS was eluted with 2 mM NADPH in TDGB. BSA was immediately added to give a final concentration of 1 mg/ml. NOS could be quick frozen and stored at -70° C. without loss in activity for at least 2 months.
Assay for inducible human NOs.
The formation of citrulline was assayed as described above except that 10 μM FAD was included and calmodulin and CaCl2 were excluded from the assay mix.

[3] = target: T2, human placental NOS (Homo sapiens, UniProt P29474); assay: Inhibition of human placental NOS (citrulline formation); type: biochemical; conditions: 1 μM L-[14C] arginine; pH 7.4; calmodulin, CaCl2
T2 construct: Purification of NOS from human placenta; from tissue; host or cells: fresh human placenta, amnion and chorion removed; ammonium sulfate and 2',5' ADP agarose purified
Protocol: It is noted that the NO synthase isolated from human placenta most probably represents the endothelial constitutive isoenzyme.
Purification of NOS from human placenta.
Amion and chorion were removed from fresh placenta, which was then rinsed with 0.9% NaCl. The tissue was homogenized in a Waring blender in 3 volumes of HEDS buffer (20 mM Hepes pH 7.8, 0.1 mM EDTA, 5 mM DTT, 0.2M sucrose) plus 0.1 mM PMSF.
The homogenate was filtered through cheesecloth and then centrifuged at 1000 g for 20 min. The supernatant was recentrifuged at 27500 g for 30 min. Solid ammonium sulfate was added to the supernatant to give 32% saturation. Precipitated protein was pelleted at 25,000 g and then redissolved in a minimal volume of HEDS buffer plus 0.1 mM PMSF, 10 μg/ml leupeptin and soybean trypsin inhibitor, and 1 μg/ml pepstatin. The redissolved pellet was centrigued at 15000 g for 10 min. To the supernatant was added 1/20 volume of 2',5' ADP agarose resin (Sigma), and the slurry was mixed slowly overnight. In morning, slurry was packed into a column. The resin was sequentially washed with HEDS, 0.5M NaCl in HEDS, HEDS, and then NOS was eluted with 10 mM NADPH in HEDS. The enzyme could be concentrated by ultrafiltration and quick frozen and stored at -70° C. without loss in activity for at least 6 months.
Assay for human placental NOS
as §1

[4] = target: T3, human brain NOS (Homo sapiens, UniProt P29475); assay: Inhibition of human brain NOS (citrulline formation); type: biochemical; conditions: Schmidt et al. 1991 procedure, 10 μM tetrahydrobiopterin included
T3 construct: Purification of NOS from human brain; from tissue; host or cells: frozen human brain; ammonium sulfate, 2',5' ADP-agarose, calmodulin-agarose
Protocol: Purification of NOS from human brain
Human brain NOS was prepared using variations of the procedures of Schmidt et al. (PNAS 88 365-369, 1991), Mayer et al. (Fed. Eur. Biochem. Soc. 288 187-191, 1991), and Bredt and Snyder, (PNAS 87 682-685, 1990). Briefly, frozen human brain (1050 gm) was homogenized in cold buffer A (50 mM HEPES, pH 7.5 (pH at RT) and 0.5 mM EDTA, 10 mM DTT, 3.6 L total volume) with a polytron. The mixture was centrifuged at 13,000 g for 1 hour and the supernatant was removed (about 2050 ml). To the supernatant, solid aimmonium sulfate (365 gm, about 30% of saturation) was added and stirred slowly for a total of 30 minutes. The precipitate was pelleted at 13,000 g for 30 minutes and the pellet was resuspended in ~400 mls of buffer A with 4 μM tetrahydrobiopterin, 1 μM FAD (Sigma), 1 μM FMN (Sigma). The solution was centrifuged at 41,000 g for 60 minutes. The supernatant was removed, frozen by pouring into liquid nitrogen, and stored overnight at -70° C. The mixture was thawed and passed through a 2',5' ADP-agarose column (0.4 g swelled in buffer A) at 4 ml/min. The column was washed with 100 ml buffer A, 200 ml buffer A with 500 mM NaCl, 100 ml Buffer A, then 30 ml buffer A with 5 mM NADPH. To the enzyme eluted from the column was added glycerol to 15%, CaCl2 to 1 mM, tetrahydrobiopterin to 10 μM, tween to 0.1% and FAD, FMN to 1 μM each. The enzyme was then passed through a 1 ml calmodulin-agarose column which had been equilibrated in Buffer A, 15% glycerol and 1 mM CaCl2. The column was washed with 15 ml Buffer A, 15% glycerol and 1 mM CaCl2, 15 ml of Buffer A, 15% glycerol and 5 mM EDTA, and then enzyme activity was eluted with 3 ml of Buffer A, 15% glycerol and 5 mM EDTA, 1 M NaCl. To the enzyme was added tetrahydrobiopterin to 10 μM, FAD and FMN to 1 μM, and tween to 0.1%. This solution was concentrated by centriprep-30 to a volume of approximately 500 μl. Human NOS was prepared completely analogously except the calmodulin-agarose column was not used. Enzyme activity was determined as described by Schmidt et al. 1991, except that 10 μM tetrahydrobiopterin was included in the assay.

[5] = tested on: NO synthase; conditions: background statement; cited from earlier work

| Ki [2] | Ki [3] | Ki [4] | Compound | other results |
| --- | --- | --- | --- | --- |
|  |  |  | N=C(N)Nc1ccc(C[C@H](N)C(=O)O)cc1 [4-guanidino phenylalanine] | renal excretion of cystine [1]: to some extent; renal excretion of lysine [1]: increased |
|  |  |  | N=C(N)NCc1ccc(C[C@H](N)C(=O)O)cc1 [4-guanidinomethylphenylalanine] | renal excretion of cystine [1]: to some extent; renal excretion of lysine [1]: increased |
| > 50 µM | > 50 µM | > 50 µM | NC(=S)Nc1ccc(C[C@H](N)C(=O)O)cc1 [Compound 28, 4-thioureido-L-phenylalanine] |  |
| > 50 µM | > 50 µM | > 50 µM | CSC(=N)Nc1ccc(C[C@H](N)C(=O)O)cc1 [Compound 29, 4-(S-methylisothioureido)-L-phenylalanine] |  |
| ≤ 10 µM | ≤ 0.5 µM | ≤ 0.5 µM | CCSC(=N)Nc1ccc(C[C@H](N)C(=O)O)cc1 [Compound 30, 4-(S-ethylisothioureido)-L-phenylalanine] |  |
|  |  |  | CN=C(N)NCCC[C@H](N)C(=O)O [L-NMMA, L-N-monomethyl-arginine] | inhibition of the synthesis of NO from L-arginine [5]: can be inhibited; selectivity between constitutive and inducible NO synthase [5]: non-selective |
|  |  |  | nitroarginine | selectivity between constitutive and inducible NO synthase [5]: non-selective |
